Assay results as given in patent US20260317309A1, “N-HETEROCYLIC GPCR RECEPTOR AGONISTS, PHARMACEUTICAL COMPOSITIONS COMPRISING THE SAME, AND METHODS FOR THEIR USE” (Carmot Therapeutics, Inc., priority 2022, published 2026).

Target: T1, human GLP-1 receptor (Homo sapiens, UniProt P43220)
T1 construct: expressed in transfected cells
Assay: GLP-1R cAMP assay (cAMP accumulation in CHO cells stably overexpressing the human GLP-1 receptor, HitHunter kit)
Assay type: cell-based
Conditions: CHO cells stably overexpressing human GLP-1R, 30 min, 20-point dose response in triplicate
Description: CAMP accumulation was measured in Chinese hamster ovary (CHO) cells (10,000 cells/well) stably overexpressing the human GLP-1 receptor using the HitHunter CAMP Assay for Small Molecules Kit (Eurofins). Briefly, cells were grown in Ham's F12 Nutrient Mix with 10% FBS, and lifted with Cell Dissociation Buffer, Enzyme free, PBS based (ThermoFisher). Cells were pelleted, and resuspended in Hank's buffered saline solution with 10 mM HEPES, and 625 μM 3-isobutyl-1-methylxanthine. The anti-cAMP antibody reagent was then added to cells at a 1:2 ratio and 5 μL of mixture was seeded in 384-well small volume white assay plates, at 10,000 cells/well. Cells were then treated with 50 nL compound using an ECHO 550 acoustic dispenser (Labcyte) in a 20-point dose response format in triplicate for 30 min. Cells were then lysed, and detection reagents added according to the manufacturer's protocol. After overnight incubation, luminescence was measured using a Perkin Elmer Envision plate reader. Dose response curves were analyzed using GraphPad Prism 9.0.
In the Table, EC50 values are designated as follows: • A: 0 nM<EC50<0.1 nM; • B: 0.1 nM≤EC50<1.0 nM; • C: 1.0 nM≤EC50<10.0 nM; • D: 10.0 nM≤EC50<100 nM; • E: 100 nM≤EC50<500 nM; and • F: ≥500 nM

T1 sequence (P43220 24-463): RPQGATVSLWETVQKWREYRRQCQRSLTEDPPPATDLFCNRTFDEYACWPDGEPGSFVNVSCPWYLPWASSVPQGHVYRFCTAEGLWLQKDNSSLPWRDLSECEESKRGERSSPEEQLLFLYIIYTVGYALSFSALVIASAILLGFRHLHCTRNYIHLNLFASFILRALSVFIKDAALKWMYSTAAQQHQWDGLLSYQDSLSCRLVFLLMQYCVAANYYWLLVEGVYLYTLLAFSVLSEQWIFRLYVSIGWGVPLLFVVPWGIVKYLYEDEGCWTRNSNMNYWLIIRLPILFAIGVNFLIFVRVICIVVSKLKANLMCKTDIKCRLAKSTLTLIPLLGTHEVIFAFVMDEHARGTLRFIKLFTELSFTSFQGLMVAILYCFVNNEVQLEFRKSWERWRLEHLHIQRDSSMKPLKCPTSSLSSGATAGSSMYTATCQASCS

Row | EC50 [nM] | SMILES
1 | 0.1 to 1 | C[C@H]1C[C@@H](Oc2ccnc(COc3ccc(F)cc3F)n2)CCN1Cc1nc2ccc(C(=O)O)cc2n1CC1(F)COC1 [Compound 582, 2-{[(2S,4S)-4-({2-[(2,4-Difluorophenoxy)methyl]pyrimidin-4-yl}oxy)-2-methylpiperidin-1-yl]methyl}-1-[(3-fluorooxetan-3-yl)methyl]-1H-1,3-benzodiazole-6-carboxylic acid]
2 | 0.1 to 1 | C[C@H]1C[C@@H](Oc2ccnc(COc3ccc(F)cc3F)n2)CCN1Cc1nc2ccc(C(=O)O)cc2n1CC1(C(F)F)COC1 [Compound 583, 1-{[3-(difluoromethyl)oxetan-3-yl]methyl}-2-{[(2S,4S)-4-({2-[(2,4-difluorophenoxy)methyl]pyrimidin-4-yl}oxy)-2-methylpiperidin-1-yl]methyl}-1H-1,3-benzodiazole-6-carboxylic acid]
3 | < 0.1 | C[C@H]1C[C@@H](Oc2ccnc(COc3ccc(F)cc3F)n2)CCN1Cc1nc2ccc(C(=O)O)cc2n1CCOCC(F)(F)F [Compound 588, 2-{[(2S,4S)-4-({2-[(2,4-Difluorophenoxy)methyl]pyrimidin-4-yl}oxy)-2-methylpiperidin-1-yl]methyl}-1-[2-(2,2,2-trifluoroethoxy)ethyl]-1H-1,3-benzodiazole-6-carboxylic acid]
4 | 0.1 to 1 | C[C@H]1C[C@@H](Oc2ccnc(COc3ccc(F)cc3F)n2)CCN1Cc1nc2ccc(C(=O)O)cc2n1C[C@@H]1CCCO1 [Compound 589, 2-{[(2S,4S)-4-({2-[(2,4-Difluorophenoxy)methyl]pyrimidin-4-yl}oxy)-2-methylpiperidin-1-yl]methyl}-1-{[(2S)-oxolan-2-yl]methyl}-1H-1,3-benzodiazole-6-carboxylic acid]
5 | < 0.1 | C[C@H](Cn1c(CN2CC[C@H](Oc3ccnc(COc4ccc(F)cc4F)n3)C[C@@H]2C)nc2ccc(C(=O)O)cc21)OC(F)F [Compound 592, 1-[(2R)-2-(Difluoromethoxy)propyl]-2-{[(2S,4S)-4-({2-[(2,4-difluorophenoxy)methyl]pyrimidin-4-yl}oxy)-2-methylpiperidin-1-yl]methyl}-1H-1,3-benzodiazole-6-carboxylic acid]
6 | < 0.1 | C[C@H]1C[C@@H](Oc2ccnc(COc3ccc(F)cc3C#N)n2)CCN1Cc1nc2ccc(C(=O)O)cc2n1CCOCC(F)(F)F [Compound 601, 2-{[(2S,4S)-4-({2-[(2-cyano-4-fluorophenoxy)methyl]pyrimidin-4-yl}oxy)-2-methylpiperidin-1-yl]methyl}-1-[2-(2,2,2-trifluoroethoxy)ethyl]-1H-1,3-benzodiazole-6-carboxylic acid]
7 | < 0.1 | C[C@H]1C[C@@H](Oc2ccnc(COc3ccc(Cl)cn3)n2)CCN1Cc1nc2c(F)cc(C(=O)O)cc2n1C[C@@H]1CCO1 [Compound 603, 2-{[(2S,4S)-4-[(2-{[(5-Chloropyridin-2-yl)oxy]methyl}pyrimidin-4-yl)oxy]-2-methylpiperidin-1-yl]methyl}-4-fluoro-1-{[(2S)-oxetan-2-yl]methyl}-1H-1,3-benzodiazole-6-carboxylic acid]

Second part, the molecule before the results:

Row | SMILES | EC50 [nM]
8 | C[C@H]1C[C@@H](Oc2ccnc(COc3ccc(F)cc3F)n2)CCN1Cc1nc2ccc(C(=O)O)cc2n1C[C@@H]1CCOC1 [Compound 584, 2-{[(2S,4S)-4-({2-[(2,4-Difluorophenoxy)methyl]pyrimidin-4-yl}oxy)-2-methylpiperidin-1-yl]methyl}-1-{[(3S)-oxolan-3-yl]methyl}-1H-1,3-benzodiazole-6-carboxylic acid] | 0.1 to 1
9 | Cc1cc2nc(CN3CC[C@H](Oc4ccnc(COc5ccc(F)cc5F)n4)C[C@@H]3C)n(C[C@@H]3CCO3)c2cc1C(=O)O [Compound 585, 2-{[(2S,4S)-4-({2-[(2,4-Difluorophenoxy)methyl]pyrimidin-4-yl}oxy)-2-methylpiperidin-1-yl]methyl}-5-methyl-1-{[(2S)-oxetan-2-yl]methyl}-1H-1,3-benzodiazole-6-carboxylic acid] | 0.1 to 1
10 | CC[C@@H]1C[C@H](Oc2ccnc(COc3ccc(C#N)cc3F)n2)CCN1Cc1nc2ccc(C(=O)O)cc2n1C[C@@H]1CCO1 [Compound 586, 2-{[(2R,4R)-4-({2-[(4-Cyano-2-fluorophenoxy)methyl]pyrimidin-4-yl}oxy)-2-ethylpiperidin-1-yl]methyl}-1-{[(2S)-oxetan-2-yl]methyl}-1H-1,3-benzodiazole-6-carboxylic acid] | 1 to 10
11 | CC[C@H]1C[C@@H](Oc2ccnc(COc3ccc(C#N)cc3F)n2)CCN1Cc1nc2ccc(C(=O)O)cc2n1C[C@@H]1CCO1 [Compound 587, 2-{[(2S,4S)-4-({2-[(4-Cyano-2-fluorophenoxy)methyl]pyrimidin-4-yl}oxy)-2-ethylpiperidin-1-yl]methyl}-1-{[(2S)-oxetan-2-yl]methyl}-1H-1,3-benzodiazole-6-carboxylic acid] | < 0.1
12 | C[C@H]1C[C@@H](Oc2ccnc(COc3ccc(F)cc3F)n2)CCN1Cc1nc2ccc(C(=O)O)cc2n1CC1CCC1 [Compound 590, 1-(Cyclobutylmethyl)-2-{[(2S,4S)-4-({2-[(2,4-difluorophenoxy)methyl]pyrimidin-4-yl}oxy)-2-methylpiperidin-1-yl]methyl}-1H-1,3-benzodiazole-6-carboxylic acid] | 0.1 to 1
13 | C[C@@H](Cn1c(CN2CC[C@H](Oc3ccnc(COc4ccc(F)cc4F)n3)C[C@@H]2C)nc2ccc(C(=O)O)cc21)OC(F)F [Compound 591, 1-[(2S)-2-(Difluoromethoxy)propyl]-2-{[(2S,4S)-4-({2-[(2,4-difluorophenoxy)methyl]pyrimidin-4-yl}oxy)-2-methylpiperidin-1-yl]methyl}-1H-1,3-benzodiazole-6-carboxylic acid] | 0.1 to 1
14 | C[C@H](Cn1c(CN2CC[C@H](Oc3ccnc(COc4ccc(F)cc4F)n3)C[C@@H]2C)nc2ccc(C(=O)O)cc21)OCC(F)(F)F [Compound 594, 2-{[(2S,4S)-4-({2-[(2,4-Difluorophenoxy)methyl]pyrimidin-4-yl}oxy)-2-methylpiperidin-1-yl]methyl}-1-[(2R)-2-(2,2,2-trifluoroethoxy)propyl]-1H-1,3-benzodiazole-6-carboxylic acid] | 1 to 10
15 | C[C@H]1C[C@@H](Oc2ccnc(COc3ncc(Cl)cc3F)n2)CCN1Cc1nc2ccc(C(=O)O)cc2n1CCOCC(F)(F)F [Compound 595, 2-{[(2S,4S)-4-[(2-{[(5-chloro-3-fluoropyridin-2-yl)oxy]methyl}pyrimidin-4-yl)oxy]-2-methylpiperidin-1-yl]methyl}-1-[2-(2,2,2-trifluoroethoxy)ethyl]-1H-1,3-benzodiazole-6-carboxylic acid] | 0.1 to 1
16 | C[C@H]1C[C@@H](Oc2ccnc(COc3ccc(C#N)cc3F)n2)CCN1Cc1nc2ccc(C(=O)O)cc2n1CCOCC(F)(F)F [Compound 596, 2-{[(2S,4S)-4-({2-[(4-Cyano-2-fluorophenoxy)methyl]pyrimidin-4-yl}oxy)-2-methylpiperidin-1-yl]methyl}-1-[2-(2,2,2-trifluoroethoxy)ethyl]-1H-1,3-benzodiazole-6-carboxylic acid] | < 0.1
17 | C[C@H]1C[C@@H](Oc2ccnc(COc3ncc(Cl)cc3F)n2)CCN1Cc1nc2c(F)cc(C(=O)O)cc2n1C[C@@H]1CCO1 [Compound 597, 2-{[(2S,4S)-4-[(2-{[(5-Chloro-3-fluoropyridin-2-yl)oxy]methyl}pyrimidin-4-yl)oxy]-2-methylpiperidin-1-yl]methyl}-4-fluoro-1-{[(2S)-oxetan-2-yl]methyl}-1H-1,3-benzodiazole-6-carboxylic acid] | < 0.1
18 | C[C@@H](Cn1c(CN2CC[C@H](Oc3ccnc(COc4ccc(F)cc4F)n3)C[C@@H]2C)nc2ccc(C(=O)O)cc21)OCC(F)(F)F [Compound 598, 2-{[(2S,4S)-4-({2-[(2,4-Difluorophenoxy)methyl]pyrimidin-4-yl}oxy)-2-methylpiperidin-1-yl]methyl}-1-[(2S)-2-(2,2,2-trifluoroethoxy)propyl]-1H-1,3-benzodiazole-6-carboxylic acid] | 0.1 to 1
19 | N#Cc1ccc(OCc2nccc(O[C@H]3CCN(Cc4nc5ccc(C(=O)O)cc5n4C[C@@H]4CCO4)[C@@H](C(F)(F)F)C3)n2)c(F)c1 [Compound 599, 2-{[(2R,4S)-4-({2-[(4-cyano-2-fluorophenoxy)methyl]pyrimidin-4-yl}oxy)-2-(trifluoromethyl)piperidin-1-yl]methyl}-1-{[(2S)-oxetan-2-yl]methyl}-1H-1,3-benzodiazole-6-carboxylic acid] | 0.1 to 1
20 | COC1(Cn2c(CN3CC[C@H](Oc4ccnc(COc5ccc(F)cc5F)n4)C[C@@H]3C)nc3ccc(C(=O)O)cc32)CCC1 [Compound 600, 2-{[(2S,4S)-4-({2-[(2,4-Difluorophenoxy)methyl]pyrimidin-4-yl}oxy)-2-methylpiperidin-1-yl]methyl}-1-[(1-methoxycyclobutyl)methyl]-1H-1,3-benzodiazole-6-carboxylic acid] | 0.1 to 1
21 | C[C@H](Cn1c(CN2CC[C@H](Oc3ccnc(COc4ncc(Cl)cc4F)n3)C[C@@H]2C)nc2ccc(C(=O)O)cc21)OC(F)F [Compound 602, 2-{[(2S,4S)-4-[(2-{[(5-Chloro-3-fluoropyridin-2-yl)oxy]methyl}pyrimidin-4-yl)oxy]-2-methylpiperidin-1-yl]methyl}-1-[(2R)-2-(difluoromethoxy)propyl]-1H-1,3-benzodiazole-6-carboxylic acid] | 0.1 to 1
